ChEMBL document CHEMBL1201862, “PubChem BioAssay data set” (2004)
The source made the active and inactive calls. For most assays here, no stated cut-off is given here; in the data, actives have a measured EC50 and inactives only a lower limit.

Tests used:
Streptokinase A = target: T1, Streptokinase A (Streptococcus pyogenes serotype M1, UniProt P10520); assay: viability-normalized secreted streptokinase activity reduction – plasminogen activation absorbance, OD405, dose response (AID 1914); format: functional, Streptococcus pyogenes M1 GAS;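 further: secreted streptokinase activity via plasminogen activation per viability signal from cell pellet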
T1 sequence (P10520 whole entry): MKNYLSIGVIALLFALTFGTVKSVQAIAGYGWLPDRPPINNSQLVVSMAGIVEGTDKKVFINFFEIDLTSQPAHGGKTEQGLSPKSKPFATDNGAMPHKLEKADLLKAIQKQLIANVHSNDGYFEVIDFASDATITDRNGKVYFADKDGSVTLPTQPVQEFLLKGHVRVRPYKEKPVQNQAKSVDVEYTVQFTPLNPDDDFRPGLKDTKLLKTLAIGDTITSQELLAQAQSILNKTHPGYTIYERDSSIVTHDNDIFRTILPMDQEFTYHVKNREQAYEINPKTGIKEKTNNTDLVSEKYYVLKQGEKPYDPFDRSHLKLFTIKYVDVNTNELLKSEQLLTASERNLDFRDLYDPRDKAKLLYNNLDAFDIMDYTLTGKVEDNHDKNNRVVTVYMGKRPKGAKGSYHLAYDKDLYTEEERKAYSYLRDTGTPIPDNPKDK

Protein RecA = target: T2, Protein RecA (Mycobacterium tuberculosis, UniProt P9WHJ3); assay: Fluorescence Cell-Free Homogeneous Dose Retest to Identify Inhibitors of RecA-Intein Splicing Activity. [Related pubchem assays (depositor defined):AID2097, AID2223, AID489010, AID492950]; format: functional
T2 sequence (P9WHJ3 whole entry): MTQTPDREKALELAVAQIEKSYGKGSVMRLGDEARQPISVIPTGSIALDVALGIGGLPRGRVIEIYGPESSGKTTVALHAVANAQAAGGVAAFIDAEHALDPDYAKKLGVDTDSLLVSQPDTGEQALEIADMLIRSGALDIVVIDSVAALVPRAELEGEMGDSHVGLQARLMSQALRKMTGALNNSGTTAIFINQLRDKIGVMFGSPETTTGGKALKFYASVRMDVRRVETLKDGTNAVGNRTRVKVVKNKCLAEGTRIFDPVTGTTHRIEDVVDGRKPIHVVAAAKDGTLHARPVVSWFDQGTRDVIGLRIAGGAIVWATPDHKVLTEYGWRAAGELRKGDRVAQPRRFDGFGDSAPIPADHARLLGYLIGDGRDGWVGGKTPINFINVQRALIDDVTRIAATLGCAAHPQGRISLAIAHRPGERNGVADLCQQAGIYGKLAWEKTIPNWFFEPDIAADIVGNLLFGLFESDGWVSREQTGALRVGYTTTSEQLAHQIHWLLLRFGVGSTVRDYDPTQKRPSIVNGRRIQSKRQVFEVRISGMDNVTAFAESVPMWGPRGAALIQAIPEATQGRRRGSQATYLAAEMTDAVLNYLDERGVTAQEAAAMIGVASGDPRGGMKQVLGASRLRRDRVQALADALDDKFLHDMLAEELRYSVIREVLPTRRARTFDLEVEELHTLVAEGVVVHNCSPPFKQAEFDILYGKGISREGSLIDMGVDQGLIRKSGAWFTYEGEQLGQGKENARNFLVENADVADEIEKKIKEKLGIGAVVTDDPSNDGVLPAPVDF

[1] = target: T3, Replicative DNA helicase DnaB (Mycobacterium tuberculosis, UniProt P9WMR3); assay: DnaB intein splicing inhibitors, dose response, biochemical, cell-free fluorescence (AID 449749); format: functional
T3 sequence (P9WMR3 whole entry): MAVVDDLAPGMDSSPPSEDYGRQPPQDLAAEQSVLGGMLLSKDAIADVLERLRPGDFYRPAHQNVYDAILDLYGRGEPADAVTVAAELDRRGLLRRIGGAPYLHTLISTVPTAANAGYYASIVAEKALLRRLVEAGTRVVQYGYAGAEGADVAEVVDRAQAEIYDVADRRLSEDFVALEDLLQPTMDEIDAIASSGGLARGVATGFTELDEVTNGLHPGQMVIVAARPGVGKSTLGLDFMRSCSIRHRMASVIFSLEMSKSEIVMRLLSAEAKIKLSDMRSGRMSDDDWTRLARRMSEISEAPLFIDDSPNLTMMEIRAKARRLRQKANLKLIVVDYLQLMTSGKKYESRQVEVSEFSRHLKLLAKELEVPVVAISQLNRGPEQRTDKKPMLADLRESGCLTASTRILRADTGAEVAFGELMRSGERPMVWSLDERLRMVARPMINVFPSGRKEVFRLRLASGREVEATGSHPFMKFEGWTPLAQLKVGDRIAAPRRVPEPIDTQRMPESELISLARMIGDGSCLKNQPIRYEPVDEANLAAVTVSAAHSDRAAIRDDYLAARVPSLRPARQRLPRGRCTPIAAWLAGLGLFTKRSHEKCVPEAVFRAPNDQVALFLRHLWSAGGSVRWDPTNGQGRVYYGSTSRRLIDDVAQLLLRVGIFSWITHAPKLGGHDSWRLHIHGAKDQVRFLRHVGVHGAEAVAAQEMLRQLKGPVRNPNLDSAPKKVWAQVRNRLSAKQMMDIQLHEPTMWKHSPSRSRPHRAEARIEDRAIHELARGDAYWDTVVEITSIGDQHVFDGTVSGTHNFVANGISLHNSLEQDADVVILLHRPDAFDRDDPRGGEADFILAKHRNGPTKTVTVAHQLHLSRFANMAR

| Structure (SMILES) | EC50 (Streptokinase A) | EC50 (Protein RecA) | AC50 [1] |
| --- | --- | --- | --- |
| O=C1C=C(Nc2ccccc2)c2ccccc2C1=O | > 150 µM (not active) | 0.723 µM (active) | 0.664 µM (active) |
| O=C(Nc1ccccc1)c1nnsc1[S+]([O-])c1ccc(Cl)cc1 (stereo not drawn) | 1.06 µM (active) | 5.92 µM (active) | 0.964 µM (active) |
| CC1OC(Nc2cccc3ccccc23)C(O)C(O)C1O (stereo not drawn) | – | 75.1 µM (active) | > 380 µM (inactive) |
